What was measured:
[1] = tested on: FCR3 strain, a drug sensitive strain of Plasmodium falciparum; assay: In vitro antimalarial assay (p-LDH, Malstat), FCR3 strain; assay type: cell-based; conditions: P. falciparum FCR3 (drug sensitive), 72 h culture, p-LDH readout, read-out: Antimalarial activity (IC50 value), Strain FCR3
How it was run: (§1)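 P. falciparum FCR3 and K1 cultured in human erythrocytes (RPMI 1640, 10% human plasma; 2% hematocrit, 0.5 or 1% parasitaemia) with compound at 12.5 to 0.0001 μM final for 72 h at 37° C (3% O2-4% CO2-93% N2). Growth read as p-LDH activity (Malstat/NBT-PES, A655 nm) after freeze-thaw; IC50 from concentration-response curve.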

[2] = tested on: K1 strain, a drug resistant strain of Plasmodium falciparum; assay: In vitro antimalarial assay (p-LDH, Malstat), K1 strain; assay type: cell-based; conditions: P. falciparum K1 (drug resistant), 72 h culture, p-LDH readout, read-out: Antimalarial activity (IC50 value), Strain K1
How it was run: as §1

| Compound | IC50 [1] | IC50 [2] |
| --- | --- | --- |
| c1ncc(Nc2nc(Nc3ccn4ccnc4c3)cc(N3CCOCC3)n2)cn1 [Example 8, N4-(Imidazo[1,2-a]pyridin-7-yl)-6-morpholino-N2-(pyrimidin-5-yl)pyrimidine-2,4-diamine] | 100 to 1000 nM | 1000 to 10000 nM |
| CCc1ccnc(Nc2nc(Nc3ccn4ccnc4c3)cc(N3CCCCC3)n2)c1 [Example 71, N2-(4-ethylpyridin-2-yl)-N4-(imidazo[1,2-a]pyridin-7-yl)-6-(piperidin-1-yl)pyrimidine-2,4-diamine] | < 100 nM | < 100 nM |
| c1cn2ccc(Nc3cc(N4CCOCC4)nc(Nc4ccc(OC5CCOCC5)nc4)n3)cc2n1 [Example 82, N4-(imidazo[1,2-a]pyridin-7-yl)-6-morpholino-N2-(6-((tetrahydro-2H-pyran-4-yl)oxy)pyridin-3-yl)pyrimidine-2,4-diamine] | 100 to 1000 nM | 100 to 1000 nM |
| CC(C)(C)c1ccnc(Nc2nc(Nc3ccn4ccnc4c3)cc(N3CCCCC3)n2)c1 [Example 72, N2-(4-(tert-butyl)pyridin-2-yl)-N4-(imidazo[1,2-a]pyridin-7-yl)-6-(piperidin-1-yl)pyrimidine-2,4-diamine] | 100 to 1000 nM | 1000 to 10000 nM |
| CCc1ccnc(Nc2nc(Nc3ccn4ccnc4c3)cc(N3CCCCCC3)n2)c1 [Example 92, 6-(azepan-1-yl)-N2-(4-ethylpyridin-2-yl)-N4-(imidazo[1,2-a]pyridin-7-yl)pyrimidine-2,4-diamine] | < 100 nM | < 100 nM |
| FC(F)(F)COc1ccc(Nc2nc(Nc3ccn4ccnc4c3)cc(N3CCOCC3)n2)cn1 [Example 77, N4-(imidazo[1,2-a]pyridin-7-yl)-6-morpholino-N2-(6-(2,2,2-trifluoroethoxy)pyridin-3-yl) pyrimidine-2,4-diamine] | < 100 nM | 100 to 1000 nM |
| c1cncc(Nc2nc(Nc3ccn4ccnc4c3)cc(N3CCOCC3)n2)c1 [Example 4, N4-(Imidazo[1,2-a]pyridin-7-yl)-6-morpholino-N2-(pyridin-3-yl)pyrimidine-2,4-diamine] | 100 to 1000 nM | 100 to 1000 nM |
| COc1ccnc(Nc2nc(Nc3ccn4ccnc4c3)cc(N3CCCC3)n2)c1 [Example 128, N4-(imidazo[1,2-a]pyridin-7-yl)-N2-(4-methoxypyridin-2-yl)-6-(pyrrolidin-1-yl)pyrimidine-2,4-diamine] | < 100 nM | < 100 nM |
| FC(F)Oc1ccc(Nc2nc(Nc3ccn4ccnc4c3)cc(N3CCOCC3)n2)cn1 [Example 78, N2-(6-(difluoromethoxy)pyridin-3-yl)-N4-(imidazo[1,2-a]pyridin-7-yl)-6-morpholinopyrimidine-2,4-diamine] | < 100 nM | 100 to 1000 nM |
| OCCOc1cccc(Nc2nc(Nc3ccn4ccnc4c3)cc(N3CCCC3)n2)n1 [Example 157, 2-[(6-{[4-(imidazo[1,2-a]pyridin-7-ylamino)-6-(pyrrolidin-1-yl)pyrimidin-2-yl]amino}pyridin-2-yl)oxy]ethanol] | < 100 nM | < 100 nM |
| CN(C)CCOc1cccc(Nc2nc(Nc3ccn4ccnc4c3)cc(N3CCCC3)n2)n1 [Example 155, N2-{6-[2-(dimethylamino)ethoxy]pyridin-2-yl}-N4-(imidazo[1,2-a]pyridin-7-yl)-6-(pyrrolidin-1-yl)pyrimidine-2,4-diamine] | < 100 nM | < 100 nM |
| CCc1ccnc(Nc2nc(Nc3ccn4ccnc4c3)cc(N3CCC(O)CC3)n2)c1 [Example 111, 1-(2-((4-ethylpyridin-2-yl)amino)-6-(imidazo[1,2-a]pyridin-7-ylamino)pyrimidin-4-yl)piperidin-4-ol] | < 100 nM | < 100 nM |
| CCc1ccnc(Nc2nc(Nc3ccn4ccnc4c3)cc(N3CCC(N4CCCC4)CC3)n2)c1 [Example 127, N2-(4-ethylpyridin-2-yl)-N4-(imidazo[1,2-a]pyridin-7-yl)-6-(4-(pyrrolidin-1-yl)piperidin-1-yl)pyrimidine-2,4-diamine] | < 100 nM | < 100 nM |
| CCc1ccnc(Nc2nc(Nc3ccn4ccnc4c3)cc(N3CC(O)C3)n2)c1 [Example 115, 1-(2-((4-ethylpyridin-2-yl)amino)-6-(imidazo[1,2-a]pyridin-7-ylamino)pyrimidin-4-yl)azetidin-3-ol] | < 100 nM | < 100 nM |
| CCCCc1cccc(Nc2nc(Nc3ccn4ccnc4c3)cc(N3CC4(COC4)C3)n2)n1 [Example 181, N2-(6-butylpyridin-2-yl)-N4-(imidazo[1,2-a]pyridin-7-yl)-6-(2-oxa-6-azaspiro[3.3]heptan-6-yl)pyrimidine-2,4-diamine] | 100 to 1000 nM | < 100 nM |
| CCc1ccnc(Nc2nc(Nc3ccn4ccnc4c3)cc(N3CC[C@H](O)C3)n2)c1 [Example 117, (S)-1-(2-((4-ethylpyridin-2-yl)amino)-6-(imidazo[1,2-a]pyridin-7-ylamino)pyrimidin-4-yl)pyrrolidin-3-ol] | < 100 nM | < 100 nM |
| CCCCc1cc(OC)cc(Nc2nc(Nc3ccn4ccnc4c3)cc(N3CCCCC3)n2)n1 [Example 197, N2-(6-butyl-4-methoxypyridin-2-yl)-N4-(imidazo[1,2-a]pyridin-7-yl)-6-(piperidin-1-yl) pyrimidine-2,4-diamine] | 100 to 1000 nM | 100 to 1000 nM |

Other lines, results leading:

| IC50 [1] | IC50 [2] | Compound |
| --- | --- | --- |
| < 100 nM | < 100 nM | Cc1cc(C)nc(Nc2nc(Nc3ccn4ccnc4c3)cc(N3CC4(COC4)C3)n2)c1 [Example 178, N2-(4,6-dimethylpyridin-2-yl)-N4-(imidazo[1,2-a]pyridin-7-yl)-6-(2-oxa-6-azaspiro[3.3]heptan-6-yl)pyrimidine-2,4-diamine] |
| < 100 nM | < 100 nM | Cc1cc(C)nc(Nc2nc(Nc3ccn4ccnc4c3)cc(N3CCC(N(C)C)C3)n2)c1 (centres unmarked) [Example 137, 6-(3-(dimethylamino)pyrrolidin-1-yl)-N2-(4,6-dimethylpyridin-2-yl)-N4-(imidazo[1,2-a]pyridin-7-yl)pyrimidine-2,4-diamine] |
| 1000 to 10000 nM | 1000 to 10000 nM | Cc1ccnc(Nc2nc(Nc3ccn4ccnc4c3)cc(N3CCN(C)[C@@H](C)C3)n2)c1 [Example 35, (S)-6-(3,4-dimethylpiperazin-1-yl)-N4-(imidazo[1,2-a]pyridin-7-yl)-N2-(4-methylpyridin-2-yl)pyrimidine-2,4-diamine] |
| 100 to 1000 nM | 100 to 1000 nM | Cc1nc(Nc2nc(Nc3ccn4ccnc4c3)cc(N3CCCCC3)n2)ccc1Cl [Example 203, N2-(5-chloro-6-methylpyridin-2-yl)-N4-(imidazo[1,2-a]pyridin-7-yl)-6-(piperidin-1-yl) pyrimidine-2,4-diamine] |
| < 100 nM | < 100 nM | CCc1cccc(Nc2nc(Nc3ccn4ccnc4c3)cc(N3CCOCC3)n2)n1 [Example 107, N2-(6-ethylpyridin-2-yl)-N4-(imidazo[1,2-a]pyridin-7-yl)-6-morpholinopyrimidine-2,4-diamine] |
| 100 to 1000 nM | 100 to 1000 nM | c1cc(Nc2nc(Nc3ccn4ccnc4c3)cc(N3CCOCC3)n2)ncn1 [Example 22, N4-(Imidazo[1,2-a]pyridin-7-yl)-6-morpholino-N2-(pyrimidin-4-yl)pyrimidine-2,4-diamine] |
| < 100 nM | < 100 nM | CCCCc1cccc(Nc2nc(Nc3ccn4ccnc4c3)cc(N3CCC4(CCOCC4)C3)n2)n1 [Example 169, N2-(6-butylpyridin-2-yl)-N4-(imidazo[1,2-a]pyridin-7-yl)-6-(8-oxa-2-azaspiro[4.5]decan-2-yl) pyrimidine-2,4-diamine] |
| < 100 nM | < 100 nM | Cc1cc(C)nc(Nc2nc(Nc3ccn4ccnc4c3)cc(N3CCC3)n2)c1 [Example 166, 6-(azetidin-1-yl)-N2-(4,6-dimethylpyridin-2-yl)-N4-(imidazo [1,2-a]pyridin-7-yl)pyrimidine-2,4-diamine] |
| < 100 nM | < 100 nM | COC1CCN(c2cc(Nc3ccn4ccnc4c3)nc(Nc3cc(C)cc(C)n3)n2)C1 (centres unmarked) [Example 140, N2-(4,6-dimethylpyridin-2-yl)-N4-(imidazo[1,2-a]pyridin-7-yl)-6-(3-methoxypyrrolidin-1-yl)pyrimidine-2,4-diamine] |
| < 100 nM | 100 to 1000 nM | Fc1ccc(Nc2nc(Nc3ccn4ccnc4c3)cc(N3CCOCC3)n2)nc1 [Example 13, N2-(5-Fluoropyridin-2-yl)-N4-(imidazo[1,2-a]pyridin-7-yl)-6-morpholinopyrimidine-2,4-diamine] |
| < 100 nM | < 100 nM | Cc1ccc(Nc2nc(Nc3ccn4ccnc4c3)cc(N3CCOCC3)n2)cn1 [Example 60, N4-(imidazo[1,2-a]pyridin-7-yl)-N2-(6-methylpyridin-3-yl)-6-morpholinopyrimidine-2,4-diamine] |
| < 100 nM | < 100 nM | Cc1cc(C)nc(Nc2nc(Nc3ccn4ccnc4c3)cc(N3C[C@H]4CCC[C@H]4C3)n2)c1 [Example 176, N2-(4,6-dimethylpyridin-2-yl)-6-[(3aR,6aS)-hexahydrocyclopenta [c]pyrrol-2(1H)-yl]-N4-(imidazo[1,2-a]pyridin-7-yl) pyrimidine-2,4-diamine] |
| < 100 nM | < 100 nM | Cc1cc(C)nc(Nc2nc(Nc3ccn4ccnc4c3)cc(N3CCC4(CCOCC4)C3)n2)c1 [Example 175, N2-(4,6-dimethylpyridin-2-yl)-N4-(imidazo[1,2-a]pyridin-7-yl)-6-(8-oxa-2-azaspiro[4.5]decan-2-yl)pyrimidine-2,4-diamine] |
| 100 to 1000 nM | 100 to 1000 nM | Fc1cncc(Nc2nc(Nc3ccn4ccnc4c3)cc(N3CCOCC3)n2)c1 [Example 6, N2-(5-Fluoropyridin-3-yl)-N 4-(imidazo[1,2-a]pyridin-7-yl)-6-morpholinopyrimidine-2,4-diamine] |
